Measurements published in ChEMBL document CHEMBL5214923, “Contemporary mTOR inhibitor scaffolds to diseases breakdown: A patent review (2015-2021)” (Eur J Med Chem, 2022).
pIC50: −log10 of the molar value. One block for each compound: values may come before it.

Assays:
mTORC2 = mTORC2 (Homo sapiens, UniProt P42345+Q6R327+Q9BPZ7+Q9BVC4); experiment: Inhibition of mTORC2 (unknown origin); assay type: protein-complex assay
mTORC1 [1] = target: T1, mTORC1 (Homo sapiens, UniProt P42345+Q8N122+Q9BVC4); experiment: Inhibition of mTORC1 (unknown origin); assay type: protein-complex assay
[2] = target: T2, Serine/threonine-protein kinase mTOR (Homo sapiens, UniProt P42345); experiment: Inhibition of mTOR (unknown origin)
A549 = experiment: Antitumor activity against human A549 cells assessed as cell growth inhibition incubated for 72 hrs by Cell Titer-Glo assay; assay type: functional, cell-based; conditions: A549, 72 h
[3] = Solubility of the compound in water; assay type: physicochemical
mTORC1 [4] = target: T1, mTORC1; experiment: Inhibition of mTORC1 (unknown origin) assessed as measuring phosphorylated p7OS6K level at 0.2 uM relative to control; assay type: protein-complex assay
mTORC2 (Homo sapiens) = mTORC2 (Homo sapiens) (UniProt P42345+Q6R327+Q9BVC4+Q9BPZ7); experiment: Inhibition of mTORC2 (unknown origin) assessed as measuring phosphorylated AKT at 0.5 uM relative to control; assay type: protein-complex assay
mTORC1 [5] = target: T1, mTORC1; experiment: Inhibition of mTORC1 (unknown origin) assessed as measuring phosphorylated 4EBP1 level at 1 uM relative to control; assay type: protein-complex assay
[6] = target: T3, Phosphatidylinositol 4,5-bisphosphate 3-kinase catalytic subunit delta isoform (Homo sapiens, UniProt O00329); experiment: Inhibition of human PI3Kdelta preincubated for 15 mins followed by ATP addition measured after 1 hr by TR-FRET assay
T3 sequence (O00329 whole entry): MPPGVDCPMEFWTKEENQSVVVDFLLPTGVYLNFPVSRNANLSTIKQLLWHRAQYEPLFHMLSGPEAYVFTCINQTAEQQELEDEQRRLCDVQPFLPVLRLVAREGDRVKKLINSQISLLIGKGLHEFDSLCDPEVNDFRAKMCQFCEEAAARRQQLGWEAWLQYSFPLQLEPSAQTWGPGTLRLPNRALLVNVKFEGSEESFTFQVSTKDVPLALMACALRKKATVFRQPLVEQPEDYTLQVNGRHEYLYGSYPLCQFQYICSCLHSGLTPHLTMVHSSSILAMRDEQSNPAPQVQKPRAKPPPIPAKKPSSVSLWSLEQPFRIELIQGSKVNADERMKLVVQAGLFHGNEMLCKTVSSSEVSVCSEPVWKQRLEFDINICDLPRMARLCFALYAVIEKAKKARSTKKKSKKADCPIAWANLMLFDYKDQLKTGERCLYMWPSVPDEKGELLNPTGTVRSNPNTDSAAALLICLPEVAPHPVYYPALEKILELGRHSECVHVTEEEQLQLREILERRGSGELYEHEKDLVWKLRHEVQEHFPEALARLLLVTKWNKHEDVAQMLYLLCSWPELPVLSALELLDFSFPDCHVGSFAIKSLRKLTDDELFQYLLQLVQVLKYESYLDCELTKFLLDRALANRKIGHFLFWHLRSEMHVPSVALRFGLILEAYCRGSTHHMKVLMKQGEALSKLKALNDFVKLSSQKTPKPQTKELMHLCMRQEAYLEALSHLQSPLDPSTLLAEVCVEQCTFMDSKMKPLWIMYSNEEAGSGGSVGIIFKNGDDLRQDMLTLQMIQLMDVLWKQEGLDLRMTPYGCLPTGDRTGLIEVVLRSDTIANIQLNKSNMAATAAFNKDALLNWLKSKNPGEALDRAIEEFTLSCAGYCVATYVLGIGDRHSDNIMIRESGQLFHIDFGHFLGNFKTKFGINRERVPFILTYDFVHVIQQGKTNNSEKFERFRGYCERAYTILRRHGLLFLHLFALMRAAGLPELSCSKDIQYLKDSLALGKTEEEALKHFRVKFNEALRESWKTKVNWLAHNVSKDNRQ

[7] = target: Phosphatidylinositol 4,5-bisphosphate 3-kinase catalytic subunit alpha isoform (Homo sapiens, UniProt P42336); experiment: Inhibition of human PI3Kalpha preincubated for 15 mins followed by ATP addition measured after 1 hr by TR-FRET assay
Sequence of Phosphatidylinositol 4,5-bisphosphate 3-kinase catalytic subunit alpha isoform (P42336 whole entry, canonical isoform): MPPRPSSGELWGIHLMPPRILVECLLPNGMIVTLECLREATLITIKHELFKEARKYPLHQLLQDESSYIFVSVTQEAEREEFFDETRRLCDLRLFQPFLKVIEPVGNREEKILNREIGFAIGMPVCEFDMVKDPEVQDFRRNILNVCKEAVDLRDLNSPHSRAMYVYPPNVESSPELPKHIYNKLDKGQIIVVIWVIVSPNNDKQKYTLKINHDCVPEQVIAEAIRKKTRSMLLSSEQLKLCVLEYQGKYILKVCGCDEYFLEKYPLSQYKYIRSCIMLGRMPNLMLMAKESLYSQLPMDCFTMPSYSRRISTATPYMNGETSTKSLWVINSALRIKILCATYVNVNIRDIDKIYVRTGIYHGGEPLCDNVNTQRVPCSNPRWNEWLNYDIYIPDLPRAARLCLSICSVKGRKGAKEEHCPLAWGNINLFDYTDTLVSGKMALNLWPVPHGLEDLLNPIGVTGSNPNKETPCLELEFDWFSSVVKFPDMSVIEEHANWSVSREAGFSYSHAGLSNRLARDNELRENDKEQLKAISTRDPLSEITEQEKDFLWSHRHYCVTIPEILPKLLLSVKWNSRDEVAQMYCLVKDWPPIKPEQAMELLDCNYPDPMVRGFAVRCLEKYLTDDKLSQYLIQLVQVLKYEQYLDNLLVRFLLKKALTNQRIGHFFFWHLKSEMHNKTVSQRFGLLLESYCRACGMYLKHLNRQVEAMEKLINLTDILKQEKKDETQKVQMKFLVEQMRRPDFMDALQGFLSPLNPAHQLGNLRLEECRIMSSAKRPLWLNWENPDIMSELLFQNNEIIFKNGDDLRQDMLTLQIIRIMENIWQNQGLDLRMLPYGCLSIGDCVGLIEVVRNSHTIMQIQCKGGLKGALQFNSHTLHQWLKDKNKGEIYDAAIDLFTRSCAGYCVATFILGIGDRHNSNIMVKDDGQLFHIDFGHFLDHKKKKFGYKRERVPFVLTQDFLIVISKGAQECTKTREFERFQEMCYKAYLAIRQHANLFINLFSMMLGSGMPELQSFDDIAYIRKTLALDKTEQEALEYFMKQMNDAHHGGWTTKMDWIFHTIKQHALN

[8] = target: Phosphatidylinositol 4,5-bisphosphate 3-kinase catalytic subunit gamma isoform (Homo sapiens, UniProt P48736); experiment: Inhibition of human PI3Kgamma preincubated for 15 mins followed by ATP addition measured after 1 hr by TR-FRET assay
Sequence of Phosphatidylinositol 4,5-bisphosphate 3-kinase catalytic subunit gamma isoform (P48736 whole entry, canonical isoform): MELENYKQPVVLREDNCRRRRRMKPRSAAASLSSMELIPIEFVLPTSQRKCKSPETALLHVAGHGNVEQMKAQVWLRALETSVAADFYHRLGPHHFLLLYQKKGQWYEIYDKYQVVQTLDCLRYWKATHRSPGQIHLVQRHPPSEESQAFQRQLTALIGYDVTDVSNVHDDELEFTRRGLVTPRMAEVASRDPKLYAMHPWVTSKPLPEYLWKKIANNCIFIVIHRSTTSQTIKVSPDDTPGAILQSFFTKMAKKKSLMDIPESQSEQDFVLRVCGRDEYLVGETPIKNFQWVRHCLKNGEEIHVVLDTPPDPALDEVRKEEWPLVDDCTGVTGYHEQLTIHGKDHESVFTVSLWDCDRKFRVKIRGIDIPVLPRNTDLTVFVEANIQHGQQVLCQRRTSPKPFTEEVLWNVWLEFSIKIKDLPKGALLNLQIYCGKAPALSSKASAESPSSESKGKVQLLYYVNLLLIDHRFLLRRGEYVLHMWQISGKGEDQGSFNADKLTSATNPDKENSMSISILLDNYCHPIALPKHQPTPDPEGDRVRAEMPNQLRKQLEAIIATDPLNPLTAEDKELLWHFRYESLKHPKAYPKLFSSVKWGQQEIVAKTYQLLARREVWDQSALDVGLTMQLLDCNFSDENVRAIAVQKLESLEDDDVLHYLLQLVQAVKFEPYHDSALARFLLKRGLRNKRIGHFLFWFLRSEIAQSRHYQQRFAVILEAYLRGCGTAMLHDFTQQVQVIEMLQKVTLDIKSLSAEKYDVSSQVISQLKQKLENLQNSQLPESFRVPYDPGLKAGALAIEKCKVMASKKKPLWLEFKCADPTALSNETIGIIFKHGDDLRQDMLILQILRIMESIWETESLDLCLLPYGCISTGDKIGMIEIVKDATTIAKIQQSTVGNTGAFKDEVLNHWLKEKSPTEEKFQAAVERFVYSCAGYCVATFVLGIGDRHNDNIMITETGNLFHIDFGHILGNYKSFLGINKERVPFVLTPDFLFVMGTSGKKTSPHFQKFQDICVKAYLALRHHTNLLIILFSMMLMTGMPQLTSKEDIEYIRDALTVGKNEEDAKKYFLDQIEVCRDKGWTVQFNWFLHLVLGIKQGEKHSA

[9] = target: T2, Serine/threonine-protein kinase mTOR; experiment: Inhibition of human mTOR assessed as measuring phosphorylated p70S6K level by TR-FRET assay
[10] = target: T2, Serine/threonine-protein kinase mTOR; experiment: Inhibition of mTOR (unknown origin) assessed as residual activity at 30 nM relative to control; values are per cent of control
[11] = target: PI3-kinase p110-alpha/p85-alpha (Homo sapiens, UniProt P42336); experiment: Inhibition of PI3K p110alpha/p85alpha (unknown origin) using PIP2 as substrate preincubated for 15 mins followed by substrate addition measured after 1 hr in presence of ATP by TR-FRET assay; assay type: protein-complex assay
Sequence of PI3-kinase p110-alpha/p85-alpha (P27986 whole entry): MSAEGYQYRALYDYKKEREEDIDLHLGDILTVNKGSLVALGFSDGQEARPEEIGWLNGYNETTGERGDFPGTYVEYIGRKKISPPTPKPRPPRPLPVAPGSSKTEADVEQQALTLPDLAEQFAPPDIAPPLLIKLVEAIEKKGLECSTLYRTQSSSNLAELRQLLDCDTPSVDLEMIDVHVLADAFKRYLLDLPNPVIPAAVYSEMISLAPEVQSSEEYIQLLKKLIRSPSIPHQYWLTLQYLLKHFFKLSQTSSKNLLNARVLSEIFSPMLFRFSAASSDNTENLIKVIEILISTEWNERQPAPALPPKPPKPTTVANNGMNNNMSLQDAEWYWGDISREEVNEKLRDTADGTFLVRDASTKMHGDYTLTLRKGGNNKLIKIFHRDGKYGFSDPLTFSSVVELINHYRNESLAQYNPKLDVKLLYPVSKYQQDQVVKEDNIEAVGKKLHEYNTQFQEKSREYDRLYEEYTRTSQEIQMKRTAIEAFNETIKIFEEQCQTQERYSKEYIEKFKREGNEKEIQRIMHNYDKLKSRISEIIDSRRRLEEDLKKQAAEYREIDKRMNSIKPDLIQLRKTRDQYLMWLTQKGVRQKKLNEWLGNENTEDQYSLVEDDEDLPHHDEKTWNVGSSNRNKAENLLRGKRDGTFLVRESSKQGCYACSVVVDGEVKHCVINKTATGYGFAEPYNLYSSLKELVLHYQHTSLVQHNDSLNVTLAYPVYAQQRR
Sequence of PI3-kinase p110-alpha/p85-alpha (P42336 whole entry): as the sequence (P42336 whole entry, canonical isoform) above

[12] = target: T2, Serine/threonine-protein kinase mTOR; experiment: Inhibition of recombinant mTOR (unknown origin) using GFP-4E-BP1 as substrate preincubated for 15 mins followed by substrate addition measured after 1 hr by TR-FRET assay

SMILES: CO[C@@H]1C[C@@H]2CC[C@@H](C)[C@@](O)(O2)C(=O)C(=O)N2CCCC[C@H]2C(=O)O[C@H]([C@H](C)C[C@@H]2CC[C@@H](OC(=O)C[n+]3csc(C)c3C)[C@H](OC)C2)CC(=O)[C@H](C)/C=C(\C)[C@@H](O)[C@@H](OC)C(=O)[C@H](C)C[C@H](C)/C=C/C=C/C=C/1C.[Br-]
pIC50 (A549): 5.13 | solubility [3]: 4.2 mg/mL

SMILES: CNC(=O)c1cccc(-c2ccc3c(N4CCOC[C@@H]4C)nc(N4CCO[C@@H]5CCC[C@@H]54)nc3n2)c1
inhibition (mTORC1 [4]): 89.9% | inhibition (mTORC2 (Homo sapiens)): 89% | inhibition (mTORC1 [5]): 62%

SMILES: CC(=O)N1CCC(n2nc(-c3cc4cc(O)cc(Cl)c4[nH]3)c3c(N)ncnc32)CC1
pIC50 [6]: 8.00 | pIC50 [7]: 7.00 | pIC50 (mTORC1 [1]): > 8.30 | pIC50 [8]: 7.30

SMILES: CO[C@@H]1C[C@@H]2CC[C@@H](C)[C@@](O)(O2)C(=O)C(=O)N2CCCC[C@H]2C(=O)O[C@H]([C@H](C)C[C@@H]2CC[C@@H](OC(=O)C[n+]3csc(C)c3C)[C@H](OC)C2)CC(=O)[C@H](C)/C=C(\C)[C@@H](OC(=O)C[n+]2csc(C)c2C)[C@@H](OC)C(=O)[C@H](C)C[C@H](C)/C=C/C=C/C=C/1C.[Br-].[Br-]
pIC50 (A549): 5.21 | solubility [3]: 100 mg/mL

SMILES: CC(C)n1nc(-c2cc3cccc(O)c3[nH]2)c2c(N)ncnc21
pIC50 [6]: 7.00 | pIC50 (mTORC1 [1]): > 8.30 | pIC50 [8]: 7.00

SMILES: CN(C)C(=O)C1CCC(Oc2nc(-c3ccc(N)nc3)nc(N3CCOCC3)n2)CC1 (stereo unspecified)
pIC50 [11]: > 6.00 | pIC50 [12]: > 6.00

Now from value to compound:

pIC50 (mTORC2): 7.40 | pIC50 (mTORC1 [1]): 8.70 | pIC50 [2]: 7.74
SMILES: O=c1[nH]c2ncc(-c3ccc(-c4nc[nH]n4)cc3)nc2n1CCC1CCOCC1

pIC50 (mTORC2): 5.62 | pIC50 (mTORC1 [1]): 6.75 | pIC50 [2]: 5.59
SMILES: CC(C)(O)c1ccc(-c2cnc3[nH]c(=O)n(CC4CCOCC4)c3n2)cn1

pIC50 [6]: 8.00 | pIC50 [7]: 7.00 | pIC50 (mTORC1 [1]): > 8.30 | pIC50 [8]: 8.00
SMILES: COc1cccc2cc(-c3nn(C4CCOCC4)c4ncnc(N)c34)[nH]c12

pIC50 [9]: > 7.00
SMILES: C[C@H]1COCCN1c1cc(N2CCOC[C@@H]2C)c2ccc(-c3ccc(CNCCO)cc3)nc2n1

pIC50 [9]: > 7.00
SMILES: COc1ccc(-c2ccc3c(N4CCOC[C@@H]4C)nc(N4CCOC[C@@H]4C)cc3n2)cc1

inhibition (mTORC1 [4]): 87.7% | inhibition (mTORC2 (Homo sapiens)): 73.9% | inhibition (mTORC1 [5]): 83.8%
SMILES: CNC(=O)c1cccc(-c2ccc3c(N4CCOC[C@@H]4C)nc(N4CCOC[C@@H]4C)nc3n2)c1

residual activity [10]: < 5%
SMILES: CN(C)CC(=O)Nc1ccc(-c2ccc3ncc4c(c3c2)n(-c2ccc(C(C)(C)C#N)cc2)c2nncn42)cn1

pIC50 [6]: 8.00 | pIC50 [7]: 7.00 | pIC50 (mTORC1 [1]): > 8.30 | pIC50 [8]: 7.60
SMILES: Nc1ncnc2c1c(-c1cc3cc(O)cc(Cl)c3[nH]1)nn2C1CCOCC1
